From PubChem BioAssay AID1963963 (Molecular Pharmacology Branch, DTP, NCI, 2024)

System: 958667-338-R-J2-PDC tumor spheroids viability
Assay: Anticancer human tumor 958667-338-R-J2-PDC patient-derived colon adenocarcinoma cell line growth inhibition [PI3K]
Conditions: spheroids with HUVEC and MSC; for IC50: curve of first compound; for viability, T/C: stronger effect = lower value; active = viability on the fitted dose curve at most 10% of control; inactive = the rest
Source text: Combinatorial screen of targeted agents with the PI3K inhibitors inavolisib, alpelisib, duvelisib, and copanlisib in multi-cell type tumor spheroids
A high-throughput screen of multi-cell type tumor spheroids was designed to identify active combinations of targeted small molecules and PI3K pathway inhibitors. Complex spheroids include a stromal component modeled by human endothelial cells (HUVEC) and fibroblasts modeled by human mesenchymal stem cells (MSCs). The concentration ranges selected for each drug and investigational agent were based upon clinically achievable concentrations if the clinical Cmax of the agent was known.
Compounds. The drugs and investigational agents: inavolisib (NSC800729), alpelisib (NSC765974), duvelisib (NSC772469), copanlisib (NSC816437), ipatasertib (NSC767898), afuresertib (NSC778305), talazoparib (NSC767125), sapanisertib (NSC764658), selumetinib (NSC741078), tovorafenib (DAY101, NSC766906), vemurafenib (NSC761431), ravoxertinib (NSC781343), sotorasib (NSC818433), MRTX1133 (NSC 836407), abemaciclib (NSC 768073), palbociclib (NSC758247), venetoclax (NSC 766270), SY5609 (NSC837396), enzalutamide (NSC755605), and darolutamide (NSC825331), were obtained from the National Cancer Institute (NCI) Developmental Therapeutics Program Chemical Repository. The FDA-approved anticancer drug set is available from the NCI Developmental Therapeutics Program. […] The stock solutions were prepared in dimethyl sulfoxide (DMSO, Sigma-Aldrich, St. Louis, MO, cat. D2650) at 800-fold the tested concentration and stored at -70 degrees C prior to their use. All drugs and investigational agents were tested over a range starting from a high concentration at or near the clinical Cmax and decreasing in half-log increments. If the clinical Cmax for an agent had not been determined, the highest concentration tested was 10 microM.
Cell Culture. All cells were maintained in an incubator at 37 degrees C and 5% CO2 with 95% humidity. The PDC lines were cultured according to standard operating procedures established by the NCI PDMR (https://pdmr.cancer.gov/sops/default.htm). All PDCs were thawed and cultured in Matrigel-coated flasks prepared with a working solution of 1X Ham's F-12 nutrient mix, without supplementation (Invitrogen, Waltham, MA, cat. 11765054), 100 U/mL penicillin-streptomycin (Invitrogen, cat. 15140122), and 2.5% Matrigel (Corning Inc., Corning, NY, cat. 354248) for the first three passages. The 354836-022-R-J1-PDC, 475296-252-R-J1-PDC, and 997726-040-R-J2-PDC lines were cultured in 6A media, which includes advanced DMEM/F-12 (Thermo Fisher Scientific, cat. 12634028), 10 mM HEPES (Thermo Fisher Scientific, cat. 15630080), 1X GlutaMAX supplement (Thermo Fisher Scientific, cat. 35050061), 0.1 mg/mL primocin (InvivoGen, San Diego, CA, cat. ant-pm-2), 10% defined fetal bovine serum, heat inactivated (HyClone Laboratories Inc., Logan, UT, cat. SH30070.03HI), 50% L-WRN conditioned media (ATCC, cat. CRL-3276), 1.25 mM N-Acetyl-L-cysteine (Sigma-Aldrich, cat. A9165), 10 mM nicotinamide (Sigma-Aldrich, cat. N0636), 1X B-27 supplement (Thermo Fisher Scientific, cat. 17504044), 1X N-2 supplement (Thermo Fisher Scientific, cat. 17502048), and 10 microM Y-27632 dihydrochloride (Tocris Bioscience, Bristol, United Kingdom, cat. 1254). The 624824-186-R-J2-PDC line was cultured in 6C/Colon 1B media, which includes all 6A media components plus 50 ng/mL human EGF recombinant protein (Thermo Fisher Scientific, cat. PHG0311). […]

[1] = second compound 0.00316 µM, first compound 0.0316 µM
[2] = second compound 0.00316 µM, first compound 0.1 µM
[3] = second compound 0.00316 µM, first compound 0.316 µM
[4] = second compound 0.00316 µM, first compound 1 µM
[5] = second compound 0.00316 µM, first compound 3.16 µM
[6] = second compound 0.00316 µM, first compound 10 µM
[7] = second compound 0.01 µM, first compound 0.0316 µM
[8] = second compound 0.01 µM, first compound 0.1 µM
[9] = second compound 0.01 µM, first compound 0.316 µM
[10] = second compound 0.01 µM, first compound 1 µM
[11] = second compound 0.01 µM, first compound 3.16 µM
[12] = second compound 0.01 µM, first compound 10 µM
[13] = second compound 0.0316 µM, first compound 0.0316 µM
[14] = second compound 0.0316 µM, first compound 0.1 µM
[15] = second compound 0.0316 µM, first compound 0.316 µM
[16] = second compound 0.0316 µM, first compound 1 µM
[17] = second compound 0.0316 µM, first compound 3.16 µM
[18] = second compound 0.0316 µM, first compound 10 µM
[19] = second compound 0.1 µM, first compound 0.0316 µM
[20] = second compound 0.1 µM, first compound 0.1 µM
[21] = second compound 0.1 µM, first compound 0.316 µM
[22] = second compound 0.1 µM, first compound 1 µM
[23] = second compound 0.1 µM, first compound 3.16 µM
[24] = second compound 0.1 µM, first compound 10 µM
[25] = second compound 0.316 µM, first compound 0.0316 µM
[26] = second compound 0.316 µM, first compound 0.1 µM
[27] = second compound 0.316 µM, first compound 0.316 µM
[28] = second compound 0.316 µM, first compound 1 µM
[29] = second compound 0.316 µM, first compound 3.16 µM
[30] = second compound 0.316 µM, first compound 10 µM
[31] = second compound 1 µM, first compound 0.0316 µM
[32] = second compound 1 µM, first compound 0.1 µM
[33] = second compound 1 µM, first compound 0.316 µM
[34] = second compound 1 µM, first compound 1 µM
[35] = second compound 1 µM, first compound 3.16 µM
[36] = second compound 1 µM, first compound 10 µM
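Also: spheroids exposed to compounds for seven days before readout.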

Cn1nccc1Nc1nccc(-c2ccn(C(CO)c3ccc(Cl)c(F)c3)c(=O)c2)n1 (centres undefined) + CC(Nc1ccc2c(c1)OCCn1cc(N3C(=O)OCC3C(F)F)nc1-2)C(N)=O
active: viability, T/C [36] 6.4%
2.14 µM: IC50 (second compound 1 µM)
inactive: viability, T/C [1] 91.7% | viability, T/C [2] 81.7% | viability, T/C [3] 112% | viability, T/C [4] 104% | viability, T/C [5] 78.7% | viability, T/C [6] 69.7% | viability, T/C [7] 108% | viability, T/C [8] 104% | viability, T/C [9] 105% | viability, T/C [10] 102% | viability, T/C [11] 75.8% | viability, T/C [12] 49.9% | viability, T/C [13] 101% | viability, T/C [14] 86.4% | viability, T/C [15] 92.4% | viability, T/C [16] 104% | viability, T/C [17] 75.7% | viability, T/C [18] 74.3% | viability, T/C [19] 102% | viability, T/C [20] 77.5% | viability, T/C [21] 102% | viability, T/C [22] 90.1% | viability, T/C [23] 87.4% | viability, T/C [24] 28.6% | viability, T/C [25] 81.5% | viability, T/C [26] 88.9% | viability, T/C [27] 86% | viability, T/C [28] 64.6% | viability, T/C [29] 41.9% | viability, T/C [30] 16.9% | viability, T/C [31] 67% | viability, T/C [32] 64% | viability, T/C [33] 70.6% | viability, T/C [34] 53.6% | viability, T/C [35] 47.6%
2.11 µM: IC50 (second compound 0.316 µM)
9.95 µM: IC50 (second compound 0.01 µM)
> 10 µM: IC50 (second compound 0.00316 µM) | IC50 (second compound 0.0316 µM)
6.57 µM: IC50 (second compound 0.1 µM)

CC(Cn1ccc(-c2ccc(C#N)c(Cl)c2)n1)NC(=O)c1cc(C(C)O)[nH]n1 (centres undefined) + COc1c(OCCCN2CCOCC2)ccc2c3n(c(=NC(=O)c4cnc(N)nc4)nc12)CCN3
< 0.0316 µM: IC50 (second compound 0.316 µM) | IC50 (second compound 1 µM)
> 10 µM: IC50 (second compound 0.00316 µM) | IC50 (second compound 0.01 µM) | IC50 (second compound 0.0316 µM)
7.69 µM: IC50 (second compound 0.1 µM)
inactive: viability, T/C [1] 109% | viability, T/C [2] 89.7% | viability, T/C [3] 111% | viability, T/C [4] 94.9% | viability, T/C [5] 97.7% | viability, T/C [6] 102% | viability, T/C [7] 83.1% | viability, T/C [8] 83.1% | viability, T/C [9] 85.2% | viability, T/C [10] 81.1% | viability, T/C [11] 104% | viability, T/C [12] 80.4% | viability, T/C [13] 75.3% | viability, T/C [14] 74.6% | viability, T/C [15] 62.8% | viability, T/C [16] 72.4% | viability, T/C [17] 76.7% | viability, T/C [18] 69.9% | viability, T/C [19] 49.5% | viability, T/C [20] 66.2% | viability, T/C [21] 56.2% | viability, T/C [22] 59.2% | viability, T/C [23] 58.5% | viability, T/C [24] 47.6% | viability, T/C [25] 33.6% | viability, T/C [26] 40.9% | viability, T/C [27] 37% | viability, T/C [28] 39.4% | viability, T/C [29] 37.3% | viability, T/C [30] 49.2% | viability, T/C [31] 19.5% | viability, T/C [32] 18.7% | viability, T/C [33] 20.6% | viability, T/C [34] 19.9% | viability, T/C [35] 22.5% | viability, T/C [36] 14.6%
